Measured values published in the kinase profiling compilation of Christmann-Franck et al. (2016).

Columns and labels:
Assay in all cases: radiometric filter-binding kinase assay, Kinase HotSpot
Conditions in all cases: compound 0.5 µM; ATP 10 µM
HCK (human) = HCK (human) (UniProt P08631)
MAPK12 (human) = MAPK12 (human) (UniProt P53778)
AURKB (human) = AURKB (human) (UniProt Q96GD4)
PAK2 (human) = PAK2 (human) (UniProt Q13177)
CSNK1G1 (human) = CSNK1G1 (human) (UniProt Q9HCP0)
PTK2 (human) = PTK2 (human) (UniProt Q05397)
CSF1R (human) = CSF1R (human) (UniProt P07333)
PHKG2 (human) = PHKG2 (human) (UniProt P15735)
CAMK2G (human) = CAMK2G (human) (UniProt Q13555)
NEK4 (human) = NEK4 (human) (UniProt P51957)
MAPKAPK3 (human) = MAPKAPK3 (human) (UniProt Q16644)
NUAK2 (human) = NUAK2 (human) (UniProt Q9H093)
AXL (human) = AXL (human) (UniProt P30530)
INSRR (human) = INSRR (human) (UniProt P14616)
MERTK (human) = MERTK (human) (UniProt Q12866)
EPHB4 (human) = EPHB4 (human) (UniProt P54760)
WNK3 (human) = WNK3 (human) (UniProt Q9BYP7)
MLTK (human) = MLTK (human) (UniProt Q9NYL2)
PDGFRA (human) = PDGFRA (human) (UniProt P16234)
HIPK2 (human) = HIPK2 (human) (UniProt Q9H2X6)
PKN2 (human) = PKN2 (human) (UniProt Q16513)
SRPK1 (human) = SRPK1 (human) (UniProt Q96SB4)
EPHA4 (human) = EPHA4 (human) (UniProt P54764)
PKN1 (human) = PKN1 (human) (UniProt Q16512)
JAK2 JH1 JH2 (human) = JAK2 JH1 JH2 (human) (UniProt O60674)
PDPK1 (human) = PDPK1 (human) (UniProt O15530)
MAPKAPK5 (human) = MAPKAPK5 (human) (UniProt Q8IW41)
NUAK1 (human) = NUAK1 (human) (UniProt O60285)
MAP2K2 (human) = MAP2K2 (human) (UniProt P36507)
STK10 (human) = STK10 (human) (UniProt O94804)
PRKACA (human) = PRKACA (human) (UniProt P17612)
AKT2 (human) = AKT2 (human) (UniProt P31751)
PASK (human) = PASK (human) (UniProt Q96RG2)
MAPK3 (human) = MAPK3 (human) (UniProt P27361)
PTK2B (human) = PTK2B (human) (UniProt Q14289)
DYRK3 (human) = DYRK3 (human) (UniProt O43781)
ERBB4 (human) = ERBB4 (human) (UniProt Q15303)
SGK3 (human) = SGK3 (human) (UniProt Q96BR1)
PRKCE (human) = PRKCE (human) (UniProt Q02156)
EPHB1 (human) = EPHB1 (human) (UniProt P54762)
ITK (human) = ITK (human) (UniProt Q08881)
CDK7 CCNH MNAT1 (human) = CDK7 CCNH MNAT1 (human) (UniProt P50613+P51948+P51946)

Sequence of NUAK1 (human) (O60285 whole entry, looked up): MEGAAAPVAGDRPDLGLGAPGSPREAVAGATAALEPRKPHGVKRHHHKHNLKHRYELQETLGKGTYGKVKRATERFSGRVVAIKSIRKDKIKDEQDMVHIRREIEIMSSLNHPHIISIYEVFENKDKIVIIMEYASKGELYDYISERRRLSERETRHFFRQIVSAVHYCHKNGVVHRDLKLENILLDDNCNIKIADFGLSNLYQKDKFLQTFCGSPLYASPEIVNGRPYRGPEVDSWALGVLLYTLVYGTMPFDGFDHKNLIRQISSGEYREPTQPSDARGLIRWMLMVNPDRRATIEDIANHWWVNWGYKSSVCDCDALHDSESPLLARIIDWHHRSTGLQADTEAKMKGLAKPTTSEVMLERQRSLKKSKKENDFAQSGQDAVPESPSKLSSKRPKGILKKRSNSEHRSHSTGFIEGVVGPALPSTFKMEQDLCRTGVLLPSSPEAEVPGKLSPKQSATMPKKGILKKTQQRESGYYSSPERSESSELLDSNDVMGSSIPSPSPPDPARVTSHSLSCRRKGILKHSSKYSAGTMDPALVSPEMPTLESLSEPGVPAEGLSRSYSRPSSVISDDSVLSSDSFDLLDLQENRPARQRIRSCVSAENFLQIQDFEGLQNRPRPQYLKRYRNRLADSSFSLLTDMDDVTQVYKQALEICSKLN
Sequence of CSNK1G1 (human) (Q9HCP0 whole entry, looked up): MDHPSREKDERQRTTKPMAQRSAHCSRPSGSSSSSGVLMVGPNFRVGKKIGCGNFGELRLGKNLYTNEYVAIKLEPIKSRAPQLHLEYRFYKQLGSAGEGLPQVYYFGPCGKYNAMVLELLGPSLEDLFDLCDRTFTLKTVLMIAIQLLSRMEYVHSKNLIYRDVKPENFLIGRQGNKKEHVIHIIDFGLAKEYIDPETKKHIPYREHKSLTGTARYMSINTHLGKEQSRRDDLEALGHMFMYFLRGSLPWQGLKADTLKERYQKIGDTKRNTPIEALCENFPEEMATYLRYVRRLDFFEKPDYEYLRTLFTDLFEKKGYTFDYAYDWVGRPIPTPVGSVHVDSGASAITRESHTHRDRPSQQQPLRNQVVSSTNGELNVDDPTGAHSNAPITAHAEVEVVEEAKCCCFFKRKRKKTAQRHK
Sequence of MLTK (human) (Q9NYL2 whole entry, looked up): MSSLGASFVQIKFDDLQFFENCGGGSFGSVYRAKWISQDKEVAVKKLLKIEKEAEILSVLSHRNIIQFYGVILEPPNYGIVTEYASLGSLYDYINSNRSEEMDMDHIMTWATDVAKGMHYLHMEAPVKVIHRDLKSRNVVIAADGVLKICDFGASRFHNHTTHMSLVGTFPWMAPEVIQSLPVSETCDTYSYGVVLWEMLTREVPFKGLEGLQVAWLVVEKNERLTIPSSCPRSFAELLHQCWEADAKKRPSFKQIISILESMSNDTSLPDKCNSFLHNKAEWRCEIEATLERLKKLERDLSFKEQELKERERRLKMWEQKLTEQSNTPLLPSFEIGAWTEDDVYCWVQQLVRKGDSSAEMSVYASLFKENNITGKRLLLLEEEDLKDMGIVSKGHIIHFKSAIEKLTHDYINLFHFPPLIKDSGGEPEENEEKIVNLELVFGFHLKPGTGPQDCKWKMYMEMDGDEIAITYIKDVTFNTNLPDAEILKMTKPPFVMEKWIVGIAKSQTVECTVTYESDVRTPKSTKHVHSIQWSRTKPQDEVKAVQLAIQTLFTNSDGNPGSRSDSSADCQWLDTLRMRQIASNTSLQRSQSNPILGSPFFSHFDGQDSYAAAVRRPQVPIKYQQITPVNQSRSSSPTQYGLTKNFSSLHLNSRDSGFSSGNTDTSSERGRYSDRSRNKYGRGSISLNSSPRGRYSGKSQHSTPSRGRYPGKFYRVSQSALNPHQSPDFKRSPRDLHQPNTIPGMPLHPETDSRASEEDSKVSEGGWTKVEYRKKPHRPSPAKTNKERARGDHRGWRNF
Sequence of ITK (human) (Q08881 whole entry, looked up): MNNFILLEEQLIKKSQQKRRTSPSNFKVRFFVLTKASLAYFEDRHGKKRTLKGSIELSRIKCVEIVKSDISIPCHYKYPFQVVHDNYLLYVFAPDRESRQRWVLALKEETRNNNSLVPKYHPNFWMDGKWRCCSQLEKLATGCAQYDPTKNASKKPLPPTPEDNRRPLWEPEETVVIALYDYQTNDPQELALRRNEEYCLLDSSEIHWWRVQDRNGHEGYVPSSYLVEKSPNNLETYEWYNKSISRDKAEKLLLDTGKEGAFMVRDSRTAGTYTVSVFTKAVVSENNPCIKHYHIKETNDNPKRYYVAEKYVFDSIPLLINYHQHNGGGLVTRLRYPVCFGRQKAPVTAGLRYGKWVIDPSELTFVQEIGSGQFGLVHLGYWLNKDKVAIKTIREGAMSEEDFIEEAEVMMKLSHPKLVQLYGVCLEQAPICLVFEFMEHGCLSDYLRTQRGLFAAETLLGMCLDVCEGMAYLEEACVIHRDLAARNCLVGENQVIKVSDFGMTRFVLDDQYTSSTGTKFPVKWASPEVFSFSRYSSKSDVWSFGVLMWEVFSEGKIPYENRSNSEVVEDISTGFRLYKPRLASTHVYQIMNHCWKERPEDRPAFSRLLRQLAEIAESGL
Sequence of MAPKAPK3 (human) (Q16644 whole entry, looked up): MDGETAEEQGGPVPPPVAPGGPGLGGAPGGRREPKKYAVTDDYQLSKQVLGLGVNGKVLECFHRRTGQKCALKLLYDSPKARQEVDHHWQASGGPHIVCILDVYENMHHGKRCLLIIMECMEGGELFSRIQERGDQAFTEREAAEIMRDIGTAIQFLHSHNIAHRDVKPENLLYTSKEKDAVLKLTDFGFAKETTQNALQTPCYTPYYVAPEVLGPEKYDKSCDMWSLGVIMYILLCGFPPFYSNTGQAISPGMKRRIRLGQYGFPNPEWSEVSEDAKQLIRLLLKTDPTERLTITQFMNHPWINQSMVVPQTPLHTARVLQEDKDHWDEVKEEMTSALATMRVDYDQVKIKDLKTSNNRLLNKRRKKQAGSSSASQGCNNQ
Sequence of PDPK1 (human) (O15530 whole entry, looked up): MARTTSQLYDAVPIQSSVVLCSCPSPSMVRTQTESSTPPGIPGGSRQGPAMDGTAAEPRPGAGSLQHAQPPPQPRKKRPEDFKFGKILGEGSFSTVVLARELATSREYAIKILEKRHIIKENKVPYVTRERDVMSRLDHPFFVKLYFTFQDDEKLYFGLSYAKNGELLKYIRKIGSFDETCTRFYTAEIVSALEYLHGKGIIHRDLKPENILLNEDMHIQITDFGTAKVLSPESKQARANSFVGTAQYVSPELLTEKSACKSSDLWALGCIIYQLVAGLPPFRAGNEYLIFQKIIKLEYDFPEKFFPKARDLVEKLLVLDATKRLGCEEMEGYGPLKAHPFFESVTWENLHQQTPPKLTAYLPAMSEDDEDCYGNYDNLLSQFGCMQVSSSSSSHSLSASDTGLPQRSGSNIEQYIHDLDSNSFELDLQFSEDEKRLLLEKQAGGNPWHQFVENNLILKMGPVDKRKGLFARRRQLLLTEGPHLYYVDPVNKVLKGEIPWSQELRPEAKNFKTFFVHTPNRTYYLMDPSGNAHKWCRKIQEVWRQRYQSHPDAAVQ
Sequence of PDGFRA (human) (P16234 whole entry, looked up): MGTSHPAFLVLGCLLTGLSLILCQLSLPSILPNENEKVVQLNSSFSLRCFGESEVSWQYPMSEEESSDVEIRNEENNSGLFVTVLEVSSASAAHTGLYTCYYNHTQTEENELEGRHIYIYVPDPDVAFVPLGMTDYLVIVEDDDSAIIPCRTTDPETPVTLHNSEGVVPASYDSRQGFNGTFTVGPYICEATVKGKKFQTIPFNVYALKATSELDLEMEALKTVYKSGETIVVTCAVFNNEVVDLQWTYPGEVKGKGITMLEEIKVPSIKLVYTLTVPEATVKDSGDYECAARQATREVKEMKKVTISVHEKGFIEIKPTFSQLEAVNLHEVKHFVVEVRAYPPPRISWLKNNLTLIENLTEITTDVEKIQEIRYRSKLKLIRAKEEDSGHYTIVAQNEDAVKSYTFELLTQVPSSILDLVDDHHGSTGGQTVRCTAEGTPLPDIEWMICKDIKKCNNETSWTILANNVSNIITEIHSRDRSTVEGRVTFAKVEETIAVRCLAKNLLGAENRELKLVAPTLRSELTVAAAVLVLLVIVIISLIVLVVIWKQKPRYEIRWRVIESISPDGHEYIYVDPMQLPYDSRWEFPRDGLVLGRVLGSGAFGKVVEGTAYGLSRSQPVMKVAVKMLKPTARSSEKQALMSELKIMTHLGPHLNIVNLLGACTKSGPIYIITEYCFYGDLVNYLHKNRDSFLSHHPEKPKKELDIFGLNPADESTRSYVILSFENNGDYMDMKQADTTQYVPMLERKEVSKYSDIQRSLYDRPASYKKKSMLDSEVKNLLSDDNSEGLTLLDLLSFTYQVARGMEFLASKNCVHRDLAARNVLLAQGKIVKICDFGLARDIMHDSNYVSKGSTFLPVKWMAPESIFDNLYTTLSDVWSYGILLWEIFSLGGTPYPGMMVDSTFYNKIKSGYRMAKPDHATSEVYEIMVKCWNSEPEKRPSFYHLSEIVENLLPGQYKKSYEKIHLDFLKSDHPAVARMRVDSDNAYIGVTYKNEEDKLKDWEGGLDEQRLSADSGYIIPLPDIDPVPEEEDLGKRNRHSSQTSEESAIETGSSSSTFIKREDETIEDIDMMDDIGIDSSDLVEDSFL
Sequence of AURKB (human) (Q96GD4 whole entry, looked up): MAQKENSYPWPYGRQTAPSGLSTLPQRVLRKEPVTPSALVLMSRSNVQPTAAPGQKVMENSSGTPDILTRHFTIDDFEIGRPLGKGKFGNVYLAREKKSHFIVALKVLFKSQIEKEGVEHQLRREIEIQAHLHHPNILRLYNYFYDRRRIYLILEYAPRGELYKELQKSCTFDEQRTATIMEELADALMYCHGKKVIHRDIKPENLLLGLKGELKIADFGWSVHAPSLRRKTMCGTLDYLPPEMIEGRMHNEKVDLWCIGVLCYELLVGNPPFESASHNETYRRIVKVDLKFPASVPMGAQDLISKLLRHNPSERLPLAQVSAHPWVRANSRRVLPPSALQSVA

CO[C@H]1CC2CC[C@@H](C)[C@@](O)(O2)C(=O)C(=O)N2CCCC[C@H]2C(=O)OC([C@H](C)C[C@@H]2CC[C@@H](O)[C@H](OC)C2)CC(=O)[C@H](C)/C=C(\C)[C@@H](O)[C@@H](OC)C(=O)[C@H](C)C[C@H](C)/C=C/C=C/C=C/1C (stereo partly drawn)
residual activity (HCK (human)): 102% | residual activity (MAPK12 (human)): 107% | residual activity (AURKB (human)): 95.2% | residual activity (PAK2 (human)): 101% | residual activity (CSNK1G1 (human)): 96% | residual activity (PTK2 (human)): 103% | residual activity (CSF1R (human)): 101% | residual activity (PHKG2 (human)): 108% | residual activity (CAMK2G (human)): 101% | residual activity (NEK4 (human)): 97.2% | residual activity (MAPKAPK3 (human)): 90.9% | residual activity (NUAK2 (human)): 140% | residual activity (AXL (human)): 99.5% | residual activity (INSRR (human)): 102% | residual activity (MERTK (human)): 90.9% | residual activity (EPHB4 (human)): 89.5% | residual activity (WNK3 (human)): 102% | residual activity (MLTK (human)): 103% | residual activity (PDGFRA (human)): 95.1% | residual activity (HIPK2 (human)): 88% | residual activity (PKN2 (human)): 89.8% | residual activity (SRPK1 (human)): 108% | residual activity (EPHA4 (human)): 115% | residual activity (PKN1 (human)): 96.2% | residual activity (JAK2 JH1 JH2 (human)): 97.5% | residual activity (PDPK1 (human)): 92.6% | residual activity (MAPKAPK5 (human)): 98% | residual activity (NUAK1 (human)): 101% | residual activity (MAP2K2 (human)): 103% | residual activity (STK10 (human)): 97.7% | residual activity (PRKACA (human)): 99.8% | residual activity (AKT2 (human)): 96.1% | residual activity (PASK (human)): 101% | residual activity (MAPK3 (human)): 104% | residual activity (PTK2B (human)): 94.2% | residual activity (DYRK3 (human)): 105% | residual activity (ERBB4 (human)): 88.7% | residual activity (SGK3 (human)): 98.1% | residual activity (PRKCE (human)): 105% | residual activity (EPHB1 (human)): 110% | residual activity (ITK (human)): 92.5% | residual activity (CDK7 CCNH MNAT1 (human)): 98.2%

O=C1NC(=O)c2c1c1c3ccccc3n3c1c1c2c2ccccc2n1C1CCC3O1
residual activity (HCK (human)): 24.8% | residual activity (MAPK12 (human)): 113% | residual activity (AURKB (human)): 9.52% | residual activity (PAK2 (human)): 43.9% | residual activity (CSNK1G1 (human)): 96.1% | residual activity (PTK2 (human)): 23.5% | residual activity (CSF1R (human)): 29.3% | residual activity (PHKG2 (human)): 75.6% | residual activity (CAMK2G (human)): 8.36% | residual activity (NEK4 (human)): 22% | residual activity (MAPKAPK3 (human)): 93.1% | residual activity (NUAK2 (human)): 52% | residual activity (AXL (human)): 38.1% | residual activity (INSRR (human)): 7.16% | residual activity (MERTK (human)): 13.6% | residual activity (EPHB4 (human)): 75.4% | residual activity (WNK3 (human)): 86% | residual activity (MLTK (human)): 89.7% | residual activity (PDGFRA (human)): 32.8% | residual activity (HIPK2 (human)): 32.6% | residual activity (PKN2 (human)): 15.9% | residual activity (SRPK1 (human)): 88.1% | residual activity (EPHA4 (human)): 91.4% | residual activity (PKN1 (human)): 2.68% | residual activity (JAK2 JH1 JH2 (human)): 14.2% | residual activity (PDPK1 (human)): 10.6% | residual activity (MAPKAPK5 (human)): 80.4% | residual activity (NUAK1 (human)): 2.09% | residual activity (MAP2K2 (human)): 87.9% | residual activity (STK10 (human)): 9.25% | residual activity (PRKACA (human)): 44.7% | residual activity (AKT2 (human)): 48.5% | residual activity (PASK (human)): 43.3% | residual activity (MAPK3 (human)): 102% | residual activity (PTK2B (human)): 41.5% | residual activity (DYRK3 (human)): 16.6% | residual activity (ERBB4 (human)): 72.5% | residual activity (SGK3 (human)): 71.7% | residual activity (PRKCE (human)): 28.4% | residual activity (EPHB1 (human)): 80.2% | residual activity (ITK (human)): 8.29% | residual activity (CDK7 CCNH MNAT1 (human)): 80.4%

COc1cc2ncnc(Nc3cccc(Cl)c3)c2cc1OC
residual activity (HCK (human)): 61.8% | residual activity (MAPK12 (human)): 98.5% | residual activity (AURKB (human)): 74.4% | residual activity (PAK2 (human)): 90.7% | residual activity (CSNK1G1 (human)): 99.9% | residual activity (PTK2 (human)): 95.1% | residual activity (CSF1R (human)): 98.2% | residual activity (PHKG2 (human)): 92.6% | residual activity (CAMK2G (human)): 97.3% | residual activity (NEK4 (human)): 87.5% | residual activity (MAPKAPK3 (human)): 92.7% | residual activity (NUAK2 (human)): 142% | residual activity (AXL (human)): 95.3% | residual activity (INSRR (human)): 99% | residual activity (MERTK (human)): 76.9% | residual activity (EPHB4 (human)): 59.7% | residual activity (WNK3 (human)): 97.8% | residual activity (MLTK (human)): 99.3% | residual activity (PDGFRA (human)): 93.3% | residual activity (HIPK2 (human)): 88.8% | residual activity (PKN2 (human)): 89.8% | residual activity (SRPK1 (human)): 102% | residual activity (EPHA4 (human)): 81.7% | residual activity (PKN1 (human)): 96.8% | residual activity (JAK2 JH1 JH2 (human)): 97.4% | residual activity (PDPK1 (human)): 81.9% | residual activity (MAPKAPK5 (human)): 89.5% | residual activity (NUAK1 (human)): 75.8% | residual activity (MAP2K2 (human)): 102% | residual activity (STK10 (human)): 24.5% | residual activity (PRKACA (human)): 98.6% | residual activity (AKT2 (human)): 84.1% | residual activity (PASK (human)): 90.2% | residual activity (MAPK3 (human)): 96.4% | residual activity (PTK2B (human)): 85.3% | residual activity (DYRK3 (human)): 96.3% | residual activity (ERBB4 (human)): 35.5% | residual activity (SGK3 (human)): 90.9% | residual activity (PRKCE (human)): 97.8% | residual activity (EPHB1 (human)): 82.8% | residual activity (ITK (human)): 93.8% | residual activity (CDK7 CCNH MNAT1 (human)): 99.9%

CNc1cc2c(Nc3cccc(Br)c3)ncnc2cn1
residual activity (HCK (human)): 84.5% | residual activity (MAPK12 (human)): 93.6% | residual activity (AURKB (human)): 76.3% | residual activity (PAK2 (human)): 92.7% | residual activity (CSNK1G1 (human)): 81.7% | residual activity (PTK2 (human)): 90.2% | residual activity (CSF1R (human)): 100% | residual activity (PHKG2 (human)): 113% | residual activity (CAMK2G (human)): 105% | residual activity (NEK4 (human)): 94.9% | residual activity (MAPKAPK3 (human)): 99.2% | residual activity (NUAK2 (human)): 85% | residual activity (AXL (human)): 98.6% | residual activity (INSRR (human)): 98.2% | residual activity (MERTK (human)): 87.5% | residual activity (EPHB4 (human)): 99.6% | residual activity (WNK3 (human)): 97.4% | residual activity (MLTK (human)): 82.3% | residual activity (PDGFRA (human)): 99% | residual activity (HIPK2 (human)): 98.4% | residual activity (PKN2 (human)): 102% | residual activity (SRPK1 (human)): 90.7% | residual activity (EPHA4 (human)): 94.2% | residual activity (PKN1 (human)): 103% | residual activity (JAK2 JH1 JH2 (human)): 82.1% | residual activity (PDPK1 (human)): 97.7% | residual activity (MAPKAPK5 (human)): 99.3% | residual activity (NUAK1 (human)): 97.5% | residual activity (MAP2K2 (human)): 90.4% | residual activity (STK10 (human)): 31.8% | residual activity (PRKACA (human)): 104% | residual activity (AKT2 (human)): 99.6% | residual activity (PASK (human)): 86.9% | residual activity (MAPK3 (human)): 97.3% | residual activity (PTK2B (human)): 94.5% | residual activity (DYRK3 (human)): 84.4% | residual activity (ERBB4 (human)): 58.6% | residual activity (SGK3 (human)): 96.8% | residual activity (PRKCE (human)): 99.8% | residual activity (EPHB1 (human)): 90.2% | residual activity (ITK (human)): 92.5% | residual activity (CDK7 CCNH MNAT1 (human)): 102%
